Results: the supplement of paper PMC10307832

How the values were obtained:
Assay in all cases: relative viability (nuclei count vs DMSO), 5 days (fraction); higher = more cells survive
[1] = compound: Cn1cc(-c2cnn3c(N)c(Br)c([C@@H]4CCCNC4)nc23)cn1 + CC(=O)c1c(C)c2cnc(Nc3ccc(N4CCNCC4)cn3)nc2n(C2CCCC2)c1=O [Palbociclib] (partner 0.5 µM)
Outline: (§1)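 Lung cancer cell lines were seeded in 1536-well plates and dosed by pin tool the next day, with either a single drug or a fixed anchor-drug dose combined with five library-drug doses (not always all listed) spaced in √10 steps. Five days later, one step fixed the cells and stained their nuclei (final 0.05% Triton X-100, 1% formaldehyde, 1 ug/ml Hoechst), and nuclei were counted on 4× images. Relative viability is the nuclei count in treated wells divided by the count in vehicle wells, and each value is the median of duplicate plates.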

[2] = compound: Cn1cc(-c2cnn3c(N)c(Br)c([C@@H]4CCCNC4)nc23)cn1 + C[C@@H](Oc1cc(-c2cnn(C3CCNCC3)c2)cnc1N)c1c(Cl)ccc(F)c1Cl [Crizotinib] (partner 1 µM)
Outline: as §1

[3] = compound: Cn1cc(-c2cnn3c(N)c(Br)c([C@@H]4CCCNC4)nc23)cn1 + NC(=O)Nc1cc(-c2cccc(F)c2)sc1C(=O)N[C@H]1CCCNC1 [AZD7762] (partner 0.2 µM)
Outline: as §1

[4] = compound: Cn1cc(-c2cnn3c(N)c(Br)c([C@@H]4CCCNC4)nc23)cn1 + O=C(CCCCCCC(=O)Nc1ccccc1)NO [Vorinostat] (partner 1 µM)
Outline: as §1

Cell Line	relative viability ([1]; first compound 0.05 µM)	relative viability ([1]; first compound 0.1581 µM)	relative viability ([1]; first compound 0.5 µM)	relative viability ([1]; first compound 1.581 µM)	relative viability ([1]; first compound 5 µM)	relative viability ([2]; first compound 0.05 µM)	relative viability ([2]; first compound 0.1581 µM)	relative viability ([2]; first compound 0.5 µM)	relative viability ([2]; first compound 1.581 µM)	relative viability ([2]; first compound 5 µM)	relative viability ([3]; first compound 0.05 µM)	relative viability ([3]; first compound 0.1581 µM)	relative viability ([3]; first compound 0.5 µM)	relative viability ([3]; first compound 1.581 µM)	relative viability ([3]; first compound 5 µM)	relative viability ([4]; first compound 0.05 µM)	relative viability ([4]; first compound 0.1581 µM)	relative viability ([4]; first compound 0.5 µM)	relative viability ([4]; first compound 1.581 µM)	relative viability ([4]; first compound 5 µM)
HCC-366	0.399	0.463	0.359	0.267	0.3	0.53	0.737	0.474	0.405	0.209	0.202	0.247	0.344	0.229	0.224	0.333	0.402	0.337	0.301	0.211
HCC-827	0.48	0.437	0.491	0.471	0.451	0.929	1	0.909	0.899	0.871	0.183	0.188	0.193	0.211	0.17	0.741	0.929	1.02	0.917	0.797
IA-LM						0.944	1.01	0.886	0.321	0.271						1.11	1.12	1.11	0.672	0.64
NCI-H520	0.266	0.232	0.231	0.199	0.172	0.743	0.821	0.694	0.601	0.589						0.681	0.676	0.702	0.467	0.446
NCI-H522	1.1	0.918	0.757	1.07	0.95						0.616	0.812	0.882	0.763	0.748	0.845	0.936	0.871	0.842	0.797
NCI-H596						0.943	1.01	1.05	0.906	0.953	1.13	1.06	1.06	1.01	1.1	0.517	0.602	0.624	0.356	0.455
NCI-H661	0.395	0.371	0.387	0.389	0.344	1.15	1.23	1.12	1.05	0.98						0.829	0.82	0.833	0.736	0.63
NCI-H1299						0.992	0.931	0.965	0.676	0.707										
NCI-H1395	0.628	0.492	0.567	0.421	0.419						0.397	0.393	0.372	0.372	0.351	0.533	0.427	0.556	0.49	0.317
NCI-H1563						0.78	0.812	0.933	0.782	0.8										
NCI-H1648	0.208	0.281	0.254	0.305	0.259						0.607	0.635	0.717	0.649	0.637	0.449	0.296	0.313	0.327	0.463
NCI-H1650	0.248	0.366	0.281	0.244	0.254	1.08	0.909	1.29	0.709	0.477						0.594	0.524	0.471	0.595	0.336
NCI-H1703						0.671	0.363	0.325	0.18	0.134	0.0942	0.119	0.139	0.102	0.098					
NCI-H1792		0.777	0.663	0.668	0.617	0.843	0.861	0.861	0.656	0.582	0.613	1.3	0.729		0.412					
NCI-H1793	0.349	0.281	0.32	0.301	0.31						0.598	0.466	0.422	0.397	0.183	0.839	0.717	0.856	0.469	0.181
NCI-H2009	0.237	0.177	0.185	0.18	0.113	1.05	1.03	1.08	0.881	0.678						0.82	0.806	0.722	0.818	0.528
NCI-H2023	0.341	0.335	0.191	0.18	0.128	0.702	0.428	0.436	0.272	0.172						0.65	0.349	0.428	0.177	0.097
NCI-H2228	1.03	0.872	0.541	0.393	0.252	0.502	0.491	0.404	0.419	0.277						0.636	0.592	0.507	0.345	0.155
NCI-H2342	0.531	0.55	0.446	0.56	0.507						0.493	0.491	0.542	0.487	0.29	0.636	0.8	0.824	0.68	0.712
SK-LU-1	0.388	0.308	0.366	0.323	0.225	0.877		0.483	0.33	0.264						0.92	0.631	0.407	0.369	0.281
SK-MES-1	0.315	0.327	0.308	0.273	0.238	1.07	1.11	0.918	0.934	0.366						1.22	0.877	0.788	0.38	0.216
SW 1573	0.482	0.447	0.333	0.264	0.301	0.794	1.07	0.9	0.747	0.73						0.818	0.967	0.682	0.582	0.721
UMC-11	0.346	0.316	0.312	0.304	0.29	0.736	0.504	0.623	0.392	0.262						0.331	0.313	0.345	0.334	0.291
